{
  "source": "patent US20250018030A1",
  "about": "“PHARMACEUTICAL COMPOSITION FOR PROMOTING CANCER IMMUNOTHERAPY AND METHOD FOR PROMOTING CANCER IMMUNOTHERAPY” (China Medical University, priority 2023, published 2025)",
  "key": {"[1]": {"system": "Tc1 cells", "test": "Intracellular cytokine staining / flow cytometry of genipin-treated skewed Tc1 cells", "assay_type": "cell-based, Mouse", "procedure": "(§1) Mouse lymph nodes and spleens were harvested, and naïve CD4 or CD8 T cells isolated via magnetic bead separation (STEMCELL Technologies) and activated in α-CD3 (10 μg/ml) and α-CD28 (1 μg/ml) pre-coated 96-well plates. Skewing conditions were as follows: Th1 cells/Tc1 cells ([…] 10 μ/ml α-IL-4), Th2 cells/Tc2 cells (20 ng/ml IL-4 and 10 μ/ml α-IFN-γ), Th17 cells/Tc17 cells (20 ng/ml IL-6, 1.25 ng/ml […], 20 ng/ml IL-1β, 20 ng/ml IL-23, 10 μg/ml α-IFN-γ and 10 μg/ml α-IL-4), and Treg cells (5 ng/ml TGF-β, 10 μg/ml α-IFN-γ and 10 μg/ml α-IL-4) in the indicated medium. Cells were cultured for 4-5 days followed by treatment with genipin (3.125 μM, 6.25 μM, 12.5 μM) or DMSO for 12-16 hours.\n(§2) Monoclonal antibodies were purchased from BD Biosciences or eBioscience. For intracellular cytokine staining (ICS), cells were first restimulated by PMA/ionomycin for 5 hours in the presence of GolgiStop (BD Biosciences), followed by surface epitope staining markers before being fixed/permeabilized (BD Cytofix/Cytoperm™) and stained with antibodies targeting intracellular antigens. Cells were finally fixed with 1.5% formaldehyde for 10 minutes at room temperature and analyzed on a FACSVerse flow cytometer (BD Bioscience). Data were analyzed using FlowJo software (Tree Star Inc.)."}, "[2]": {"system": "Tc17 cells", "test": "Intracellular cytokine staining / flow cytometry of genipin-treated skewed Tc17 cells", "assay_type": "cell-based, Mouse", "settings": "FIG. 1E-1G", "procedure": "as §1, §2"}, "[3]": {"system": "Th1 cells", "test": "Cytokine staining of genipin-treated skewed Th1 cells", "assay_type": "cell-based, Mouse", "settings": "data not shown", "procedure": "as §1, §2"}, "[4]": {"system": "Tc1 cells", "test": "RNA-seq gene expression analysis of genipin-treated Tc1 cells", "assay_type": "cell-based, Mouse", "procedure": "For RNA-seq analysis, the differential gene expression analysis was conducted by RNA-seq quantification following the procedure of Illumina and was performed by Genomics (Taiwan). Low-quality bases and sequencing adapters in the raw data generated from the Illumina sequencer were removed, and the final library quality was assessed on the Agilent Bioanalyzer 2100 system. The gene expression profiles in the genipin-treated and control Tc1 cells were analyzed and compared. The differentially expressed genes were calculated by EBSeq, and functional analysis, such as (gene ontology) GO analysis, was performed using cluster Profiler. For real-time PCR, total RNA was extracted using the RNeasy Micro Kit (Qiagen), and cDNA was synthesized with the PrimeScript™ RT reagent kit (TakaRa). Real-time PCR amplification of IFN-γ was performed in triplicate using TaqMan Gene Expression Assay (Mm01168134_m1) in a Step One Plus system (Applied Biosystems). 18S primers were used as endogenous controls, and the relative gene expression was calculated using the 2^ΔΔCt method."}, "[5]": {"system": "Pan18 cells", "test": "Orthotopic PDAC tumor model (Pan18 cells injected in pancreas)", "assay_type": "in vivo, mice", "settings": "for Survival, bioluminescent tumor growth and tumor weight: FIG. 5H-5J", "procedure": "as §2\nFor Pan18-subcutaneous implantation, 5×10^5 Pan18 cells were administered to wild-type (WT) or IL-17^−/− mice. Genipin (5 mg/kg, 10 mg/kg, or 30 mg/kg, i.p., every two days) was administered to Pan18-bearing mice for 3 weeks. For 3036-subcutanous implantation, 2×10^5 3036 cells were administered to WT mice. Genipin (10 mg/kg, i.p., every two days) and recombinant anti-IL-17 receptor antibody (αIL-17RA) (1 mg/kg, i.v., once a week) were administered to 3036-bearing mice for 3 weeks. Tumor volumes were evaluated every 2 days. For the orthotopic tumor modelling, mice pancreases were injected with 2×10^5 Pan18 cells and monitored for tumor growth weekly using IVIS kinetics imaging system (Caliper Life-Sciences). Genipin (10 mg/kg, i.p., every two days) or αIL-17RA (1 mg/kg, i.v., once a week) was administered 1 week after tumor implantation. Mice were sacrificed 35 days after tumor induction and tumors weighed. For spontaneous pancreatic cancer model, Cre-dependent conditional knockin mutations of KrasG12D Kras^+/LSLG12D mice (B6; 129-Kras2) were obtained from the Mouse Models of Human Cancer Consortium. Elas-CreERT; Kras^+/LSLG12D mice was generated by breeding Kras^+/LSLG12D mice with Elas-CreER mice obtained from the Level Transgenic Center. To induce the expression of Kras^+/LSLG12D in acinar cells, 5-week-old Elas-CreERT; Kras^+/LSLG12D male mice were injected with 100 μl of tamoxifen (20 mg/ml, i.p., three times per week) for 1 week. To induce chronic inflammation and tumors, 100 μl of cerulein (50 μg/ml, i.p., six times per week) (BACHEM) was given to the mice for 3 weeks. Then, the mice were injected with genipin (10 mg/kg, i.p., every two days) and αIL-17RA (1 mg/kg, i.v., once a week) until the end of the experiment, and overall survival was monitored. For genetically CD4/CD8-specific UCP2 deletion tumor modelling, we generated CD4Cre×UCP2^f/f mice by crossing loxP-UCP2-loxP mice with CD4Cre mice. CD4Cre×UCP2^f/f, WT, and loxP control mice underwent subcutaneous implantation of 2×10^5 Pan18 cells, followed by treatment with αIL-17RA (1 mg/kg, i.v., once a week) for 3 weeks. For melanoma modelling, IL-17/-and WT mice underwent subcutaneous implantation of 5×10^5 B16F10 cells, followed by treatment with genipin (10 mg/kg, i.p., every two days) for 3 weeks. For CD8 depletion tumor modelling, IL-17^−/− mice underwent subcutaneous implantation of 2×10^5 Pan18 cells, followed by treatment with genipin (10 mg/kg, i.p., every two days) and CD8 neutralizing antibody (5 mg/kg, i.v., once a week) for 3 weeks. Tumor volumes were evaluated every 3 days."}, "[6]": {"system": "tumors of PDAC patients", "test": "Ex vivo genipin treatment of tumors of PDAC patients, flow cytometry", "assay_type": "cell-based, human", "procedure": "as §2\nPDAC human subject study was approved by the Research Ethics Committee of China Medical University & Hospital (CMUH109-REC2-148). 10 ml of fresh blood and 0.1-0.5 mm^3 of tumor mass were collected on the same day from patients who underwent surgical resection. Monocytes were isolated from the patients' peripheral blood mononuclear cell (PBMC) or tumor mass. Cells were resuspended in RPMI medium containing 10% FBS and seeded at a density of 2×10^5/well in a 12-well plate. Cells were treated with genipin (12.5 μM, 25 μM) and incubated overnight before staining for the flow cytometry analysis."}, "[7]": {"settings": "genipin-treated Tc1 cells, FIG. 2D"}},
  "data": [
    {"smiles": "COC(=O)C1=CO[C@@H](O)[C@@H]2C(CO)=CC[C@H]12", "note": "[genipin]", "values": [
      {"measurement": "IL-12R expression in Tc1 cells", "setting": "[1]; genipin 12.5 μM, FIG. 2O-2P", "result": "increased IL-12R expression"},
      {"measurement": "IFN-γ production in Tc1 cells", "setting": "[1]; genipin 3.125, 6.25, 12.5 μM, 12-16 hours, FIG. 1C-1D", "result": "promoted IFN-γ"},
      {"measurement": "T-bet expression in IFN-γ+CD8+ T cell population of Tc1 cells", "setting": "[1]; genipin-treated Tc1 cells, FIG. 1J", "result": "elevated the expression of T-bet"},
      {"measurement": "IFN-γ production in Tc17 cells", "setting": "[2]", "result": "promoted IFN-γ"},
      {"measurement": "IL-17 expression in Tc17 cells", "setting": "[2]", "result": "without impacting IL-17 expression"},
      {"measurement": "IFN-γ in Th1 cells", "setting": "[3]", "result": "increased IFN-γ"},
      {"measurement": "Expression of genes that control IFN-γ signaling, leukocyte activation and bioenergetic metabolism (GOBP enrichment)", "setting": "[4]; genipin 12.5 μM, FIG. 2C", "result": "correlated positively"},
      {"measurement": "Expression of genes related to T cell activation and migration (Tbx21, Ccl5, Eomes, Il12rb2, Ctla2a, Ctla2b)", "setting": "[4]; [7]", "result": "augmented the expression"},
      {"measurement": "Expression of glycolytic pathway genes (Hk2, Gck, Pfkl, Aldoc, Pgam1, Eno2, Ldha)", "setting": "[4]; [7]", "result": "increased expression"},
      {"measurement": "Survival, bioluminescent tumor growth and tumor weight", "setting": "[5]; IL-17−/− mice, genipin 10 mg/kg i.p. every two days, 3 weeks", "result": "significant benefit"},
      {"measurement": "Tumor-infiltrating population of Tc1 cells", "setting": "[5]; IL-17−/− mice, genipin 10 mg/kg, FIG. 5K", "result": "increased"},
      {"measurement": "Tumor-infiltrating population of Th1 cells", "setting": "[5]; IL-17−/− mice, genipin 10 mg/kg, FIG. 5L", "result": "increased"},
      {"measurement": "Tumor-infiltrating population of MDSC", "setting": "[5]; IL-17−/− mice, genipin 10 mg/kg, FIG. 5N", "result": "increased"},
      {"measurement": "Survival, bioluminescent tumor growth and tumor weight", "setting": "[5]; WT mice, genipin 10 mg/kg alone (singular UCP2 targeting)", "result": "no impact"},
      {"measurement": "Tc1 cells (IFN-γ-producing CD8+ T cells)", "setting": "[6]; genipin 12.5, 25 μM overnight, FIG. 8C-8D", "result": "increased Tc1 cells"},
      {"measurement": "Th1 cells population (IFN-γ-producing CD4+ T cells)", "setting": "[6]; genipin overnight, FIG. 8G", "result": "no significant changes"},
      {"measurement": "Th17 cells (IL-17-producing CD4+ T cells)", "setting": "[6]; genipin overnight, FIG. 8H", "result": "did not increase"}
    ]}
  ]
}
